Reference: paper PMC3445454, “Broad and Cross-Clade CD4^+ T-Cell Responses Elicited by a DNA Vaccine Encoding Highly Conserved and Promiscuous HIV-1 M-Group Consensus Peptides” (PLoS ONE, 2012)
Substitutions are numbered along the chain they refer to. Like-named read-outs stand apart in the source and are kept apart here. Ends that are not written are not given here.

Assays:
Assay in all cases: biochemical
[1] = target: HLA-DR DRB1*10:01 (Homo sapiens, UniProt P01903+P01911, A100R/A169T/D57E/F55L/F60V/F69Y/F76Y/I96L/L162R/M171V/P40V/Q260P/Q39E/Q99R/R195Q/R42F/S149N/S66Y/T210M/V115G/V67A/W38E/Y59R/Y61H); format: binding
[2] = target: HLA-DR DRB1*11:01 (Homo sapiens, UniProt P01903+P01911, A100R/A169T/A87E/I96F/K41T/L162R/M171V/P40S/Q125H/Q178H/Q39Y/Q99D/R42S/S66Y/T262R/V115G/W38E); format: binding
[3] = target: HLA-DR DRB5*01:01 (Homo sapiens, UniProt P01903+Q30154); format: binding; settings: read-out: Binding capacity/IC50 (nM) DRB5*01:01
[4] = target: HLA-DR DRB3*01:01 (Homo sapiens, UniProt P01903+P79483); format: binding
[5] = target: T1, HLA-DP DPA1*02:01/DPB1*05:01 (Homo sapiens, UniProt P04440+P20036, A65V/A84E/F191V/F64L/G113D/G114E/K142R/L158P/M116V/M62Q/P115A/Q81R/R125K/T114A/T199I/T259P/V234M); format: binding
T1 sequence (P20036 29-260 A42M/M62Q/Q81R/T114A/K142R/L158P/F191V/T259P): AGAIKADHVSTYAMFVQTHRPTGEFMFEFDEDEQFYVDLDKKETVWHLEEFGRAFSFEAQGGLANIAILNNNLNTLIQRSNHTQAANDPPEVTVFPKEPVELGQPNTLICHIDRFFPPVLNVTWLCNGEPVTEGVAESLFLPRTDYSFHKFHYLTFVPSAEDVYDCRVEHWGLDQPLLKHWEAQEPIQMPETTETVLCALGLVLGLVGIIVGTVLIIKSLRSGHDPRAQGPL
T1 sequence (P04440 30-258 F64L/A65V/A84E/G113D/G114E/P115A/M116V/R125K/T199I/V234M): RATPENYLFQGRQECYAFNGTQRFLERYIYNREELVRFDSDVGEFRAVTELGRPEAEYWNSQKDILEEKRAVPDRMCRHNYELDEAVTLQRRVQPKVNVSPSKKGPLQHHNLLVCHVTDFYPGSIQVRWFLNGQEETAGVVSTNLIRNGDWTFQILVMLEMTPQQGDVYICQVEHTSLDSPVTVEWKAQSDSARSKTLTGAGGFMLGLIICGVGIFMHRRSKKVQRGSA

[6] = target: HLA-DR DRB1*03:01 (Homo sapiens, UniProt P01903+P01911, A100K/A102G/A103R/A169T/F55Y/I96L/K41T/L162R/M171V/P40S/Q125H/Q178H/Q39Y/R42S/S66N/T106N/T262R/W38E/Y61H); format: binding
[7] = target: T2, HLA-DP DPA1*01:03/DPB1*04:01 (Homo sapiens, UniProt P04440+P20036); format: binding
T2 sequence (P20036 29-260): T1 sequence (P20036 29-260 A42M/M62Q/Q81R/T114A/K142R/L158P/F191V/T259P) with M14A, Q34M, R53Q, A86T, R114K, P130L, V163F, P231T
T2 sequence (P04440 30-258): T1 sequence (P04440 30-258 F64L/A65V/A84E/G113D/G114E/P115A/M116V/R125K/T199I/V234M) with L35F, V36A, E55A, D84G, E85G, A86P, V87M, K96R, I170T, M205V

[8] = target: HLA-DR DRB1*07:01 (Homo sapiens, UniProt P01903+P01911, A100R/A102G/A103Q/D57E/D86V/E43K/F76Y/K127E/L162R/M171V/P40G/Q125H/Q99D/R33Q/R42Y/R54Q/S133A/S66F/T210M/V115G/Y107V/Y59L/Y89S); format: binding
[9] = target: T3, HLA-DP DPA1*01:03/DPB1*20:01 (Homo sapiens, UniProt P04440+P20036, A65V/A84D/A85E/E86D/F38Y/G113D/G114E/G40L/I94L/L37V/M116V/P115A/R125K/T199I); format: binding
T3 sequence (P20036 29-260): T1 sequence (P20036 29-260 A42M/M62Q/Q81R/T114A/K142R/L158P/F191V/T259P) with M14A, Q34M, R53Q, A86T, R114K, P130L, V163F, P231T
T3 sequence (P04440 30-258 L37V/F38Y/G40L/A65V/A84D/A85E/E86D/I94L/G113D/G114E/P115A/M116V/R125K/T199I/V234M): T1 sequence (P04440 30-258 F64L/A65V/A84E/G113D/G114E/P115A/M116V/R125K/T199I/V234M) with L8V, F9Y, G11L, L35F, E55D, A56E, E57D, I65L

[10] = target: HLA-DR DRB1*09:01 (Homo sapiens, UniProt P01903+P01911, A100R/A103E/D57H/D86V/F55Y/F60I/F76Y/I96F/K127E/L162R/M171V/P40D/Q125H/Q99R/R33Q/R42F/S133A/S66N/T210M/V115G/W38K/Y107V/Y59G/Y89S); format: binding
[11] = target: HLA-DP DPA1*02:01/DPB1*01:01 (Homo sapiens, UniProt P04440+P20036, F191V/F38Y/F64Y/G113D/G114E/K142R/L158P/L37V/M105V/M116V/M62Q/P115A/Q81R/R125K/R223Q/T114A/T199I/T259P)
[12] = read-out: Binding capacity/IC50 (nM) DRB1*10:01
[13] = read-out: Binding capacity/IC50 (nM) DRB1*11:01
[14] = read-out: Binding capacity/IC50 (nM) DRB3*01:01
[15] = read-out: Binding capacity/IC50 (nM) DRB1*03:01
[16] = read-out: Binding capacity/IC50 (nM) DPA1*01:03 DPB1*04:01
[17] = read-out: Binding capacity/IC50 (nM) DRB1*07:01
[18] = read-out: Binding capacity/IC50 (nM) DPA1*01:03 DPB1*20:01
[19] = read-out: Binding capacity/IC50 (nM) DRB1*09:01
[20] = read-out: Binding capacity/IC50 (nM) DPA1*02:01 DPB1*05:01

Sequence of HLA-DR DRB1*03:01 (P01903 26-254 limits assumed, other chains not shown): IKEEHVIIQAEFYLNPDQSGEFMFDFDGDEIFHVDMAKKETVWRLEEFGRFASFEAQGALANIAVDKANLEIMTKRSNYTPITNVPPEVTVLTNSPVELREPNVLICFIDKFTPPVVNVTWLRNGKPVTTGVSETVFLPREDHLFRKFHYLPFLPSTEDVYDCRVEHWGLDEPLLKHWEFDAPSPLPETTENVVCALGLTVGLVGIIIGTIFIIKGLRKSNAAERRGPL
Sequence of HLA-DR DRB1*11:01 (P01903 26-254 limits assumed, other chains not shown): as above

| Compound | IC50 [1, 12] [nM] | IC50 [2, 13] [nM] | IC50 [3] [nM] | IC50 [4, 14] [nM] | IC50 [5] [nM] | IC50 [6, 15] [nM] | IC50 [7, 16] [nM] | IC50 [8, 17] [nM] | IC50 [9, 18] [nM] | IC50 [10, 19] [nM] | IC50 [11] [nM] | IC50 [4] [nM] | IC50 [5, 20] [nM] | IC50 [7] [nM] | IC50 [1] [nM] | IC50 [2] [nM] | IC50 [6] [nM] | IC50 [8] [nM] | IC50 [10] [nM] | IC50 [9] [nM] |
| --- | --- | --- | --- | --- | --- | --- | --- | --- | --- | --- | --- | --- | --- | --- | --- | --- | --- | --- | --- | --- |
| CC[C@H](C)[C@H](NC(=O)[C@@H](NC(=O)[C@H](CCCCN)NC(=O)[C@@H](NC(=O)[C@@H]1CCCN1C(=O)[C@H](Cc1c[nH]c2ccccc12)NC(=O)[C@H](CCCNC(=N)N)NC(=O)CNC(=O)[C@H](C)NC(=O)[C@H](CC(C)C)NC(=O)[C@H](CCCCN)NC(=O)[C@H](CC(C)C)NC(=O)[C@@H](NC(=O)[C@H](Cc1ccccc1)NC(=O)[C@H](Cc1ccc(O)cc1)NC(=O)[C@H](C)NC(=O)[C@@H](NC(=O)[C@@H](N)CCC(=O)O)[C@@H](C)O)[C@@H](C)CC)C(C)C)C(C)C)C(N)=O [integrase(96-113)] | 13 | 27 | 4.4 | 583 | 621 | 224 | 232 | 1380 | 857 | 390 | 792 |  |  |  |  |  |  |  |  |  |
| CC[C@H](C)[C@H](NC(=O)[C@H](CCCCN)NC(=O)[C@@H](NC(=O)[C@@H](NC(=O)[C@@H](N)CCC(N)=O)[C@@H](C)CC)[C@@H](C)O)C(=O)N[C@@H](CCC(N)=O)C(=O)N[C@@H](CC(N)=O)C(=O)N[C@@H](Cc1ccccc1)C(=O)N[C@@H](CCCNC(=N)N)C(=O)N[C@H](C(=O)N[C@@H](Cc1ccc(O)cc1)C(=O)N[C@@H](Cc1ccc(O)cc1)C(=O)N[C@@H](CCCNC(=N)N)C(=O)N[C@@H](CC(=O)O)C(=O)N[C@@H](CO)C(=O)N[C@@H](CCCNC(=N)N)C(=O)N[C@@H](CC(=O)O)C(=O)N1CCC[C@H]1C(=O)N[C@H](C(=O)N[C@@H](Cc1c[nH]c2ccccc12)C(N)=O)[C@@H](C)CC)C(C)C [integrase(216-235)] | 45 | 288 | 9.5 |  |  | 11 |  | 63 | 39 | 542 | 400 | 39 | 7.6 | 1070 |  |  |  |  |  |  |
| CC[C@H](C)[C@H](NC(=O)[C@H](C)NC(=O)[C@H](CCCCN)NC(=O)[C@H](CCCCN)NC(=O)CNC(=O)[C@H](CS)NC(=O)[C@@H](NC(=O)[C@H](CCC(=O)O)NC(=O)[C@@H](NC(=O)[C@H](CC(C)C)NC(=O)[C@@H](NC(=O)[C@H](CCC(N)=O)NC(=O)[C@H](CC(=O)O)NC(=O)[C@H](Cc1ccc(O)cc1)NC(=O)[C@H](CCC(N)=O)NC(=O)[C@H](CCCNC(=N)N)NC(=O)[C@@H](NC(=O)[C@H](CCCCN)NC(=O)[C@@H](NC(=O)[C@@H](N)Cc1ccccc1)[C@@H](C)CC)C(C)C)[C@@H](C)CC)[C@@H](C)CC)[C@@H](C)CC)C(=O)NCC(=O)N[C@H](C(=O)N[C@H](C(N)=O)C(C)C)[C@@H](C)O [protease(53-75)] |  |  | 93 | 545 |  |  | 452 |  | 19 |  | 112 |  | 53 |  | 62 | 1360 | 347 | 1770 | 234 |  |
| CC[C@H](C)[C@H](NC(=O)[C@H](C)NC(=O)[C@@H](N)CCC(=O)O)C(=O)N[C@H](C(=O)N[C@@H](CCCNC(=N)N)C(=O)N[C@H](C(=O)N[C@@H](CC(C)C)C(=O)N[C@@H](CCC(N)=O)C(=O)N[C@@H](CCC(N)=O)C(=O)N[C@@H](CC(C)C)C(=O)N[C@@H](CC(C)C)C(=O)N[C@@H](Cc1ccccc1)C(=O)N[C@H](C(=O)N[C@@H](Cc1c[nH]cn1)C(=O)N[C@@H](Cc1ccccc1)C(=O)N[C@@H](CCCNC(=N)N)C(=O)N[C@H](C(=O)NCC(=O)N[C@@H](CS)C(=O)N[C@@H](CCC(N)=O)C(=O)N[C@@H](Cc1c[nH]cn1)C(=O)N[C@@H](CO)C(=O)N[C@@H](CCCNC(=N)N)C(N)=O)[C@@H](C)CC)[C@@H](C)CC)[C@@H](C)CC)[C@@H](C)CC [vpr(58-80)] |  |  | 443 |  |  |  | 113 |  |  |  | 2630 | 11600 | 2990 |  | 170 | 724 | 14400 | 885 | 477 | 398 |
| EAVRHFPRPWLHGL-NH2 [vpr(29-42)] |  |  | 731 |  |  |  |  |  |  |  | 8610 | 7870 | 8450 | 17000 | 311 | > 30000 | > 30000 | 1390 | 1270 | 31 |
| SEELRSLYNTVATLYCVHQ-NH2 [p17(72-90)] | 39 | 1070 | 435 | 907 |  | 652 | 240 | 661 | 2310 | 217 | 860 |  | 1900 |  |  |  |  |  |  |  |
